Read-outs that look alike come from different tables or passages of the source.
Assays:
SCLC strain SHP-77 = assay: MTT assay for cell survival, SCLC SHP-77 in vitro; assay type: cell-based, human; conditions: ED50 for killing of SCLC strain SHP-77 in vitro, 4 days, 0 = no detectable activity
A549 NSCLC cells = assay: Inhibition of A-549 tumor growth in vivo in nude mice; design: species or system athymic nude mice; key: an IC50 value of “0” represents no detectable anti-cancer activity for a drug in a given cell line; “Stim.” indicates the observation of a stimulatory activity on the growth of the cancer cell line; conditions: percent inhibition of tumor growth in nude mice; i.p. 5 mg/kg/every second day or 10 mg/kg/every fourth day
Experimental: (§1) Compounds having high in vitro cytotoxic activity were tested against implanted tumors in vivo. Athymic nude mice were implanted subcutaneously with suspensions (2 million SHP-77 SCLC cells, 1 million A549 NSCLC cells or 1.5 million PC3 PC cells) in Matrigel suspension. On the eighth day after tumor implantation groups of 5 mice bearing implants were injected intraperitoneally with the compounds being tested at 5 mg/kg/every second day or at 10 mg/kg/every fourth day; control animals were injected with an equal volume of isotonic saline. Less soluble compounds were initially dissolved in dimethyl sulfoxide (DMSO) and diluted with medium. In those cases the control injections contained the same concentration of DMSO. Tumor size was measured with a caliper three times per week. Tumor volume was calculated by the formula: Volume(cc)=3.14×(length)×(width)^2/6 At autopsy tumors were removed and weighed. Tumor inhibition was calculated on both weight and measurement basis. In each Table, an IC50 value of “0” represents no detectable anti-cancer activity for a drug in a given cell line and “Stim.” indicates the observation of a stimulatory activity on the growth of the cancer cell line.

PC3 PC cells = assay: Inhibition of PC3 tumor growth in vivo in nude mice; design: species or system athymic nude mice; key to PC3 In vivo % inhib.: an IC50 value of “0” represents no detectable anti-cancer activity for a drug in a given cell line; “Stim.” indicates the observation of a stimulatory activity on the growth of the cancer cell line; conditions: for PC3 In vivo % inhib.: percent inhibition of tumor growth in nude mice, prostate cancer, i.p. 5 mg/kg/every second day or 10 mg/kg/every fourth day
Outline: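 Athymic nude mice carrying subcutaneous Matrigel implants (2 million SHP-77, 1 million A549 or 1.5 million PC3 cells) received intraperitoneal compound from day 8, 5 mg/kg every second day or 10 mg/kg every fourth day, 5 mice/group, vehicle controls. Inhibition from caliper volume (3.14×L×W²/6, thrice weekly) and tumor weight at autopsy.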

NSCLC strain A-549 = assay: MTT assay for cell survival, NSCLC A-549 in vitro; assay type: cell-based, human; conditions: ED50 for killing of NSCLC strain A-549 in vitro, 4 days
implanted tumors = assay: In vivo anti-cancer activity after oral administration; design: species or system nude mice
SHP-77 SCLC cells = assay: Inhibition of SHP-77 tumor growth in vivo in nude mice; design: species or system athymic nude mice; conditions: 5 mg/kg/every second day or 10 mg/kg/every fourth day
Experimental: as §1

[1] = test system: cultured human cancer cell lines; assay: MTT assay for cell survival, cell line not stated; assay type: cell-based; conditions: 4 days, read-out: concentration causing 50% cell death

Molecule | IC50 (SCLC strain SHP-77; read-out: SHP-77 In vitro IC50) [µM] | A-549 In vivo % inhib. (A549 NSCLC cells) | PC3 In vivo % inhib. (PC3 PC cells) | IC50 (SCLC strain SHP-77; read-out: SCLC SHP-77 IC50) [µM] | other results
O=C(C=Cc1c(F)c(F)c(F)c(F)c1F)NC(Cc1ccc(I)cc1)C(=O)NC1CCN(Cc2ccccc2)CC1 (stereo not drawn) [Analog M-1180, F5c-PIF-Abzp] | 3.2 | 23% | 53% | – | –
CC1(C)CC(NC(=O)C(Cc2ccc(OCc3c(Cl)cccc3Cl)cc2)NC(=O)C(c2ccccc2)C2CCCCC2)CC(C)(C)N1 (single isomer, unassigned) [M-1124#2, Chpa-OC2Y-Atmp] | 3.5 | 4.5% | – | – | –
CC1(C)CC(NC(=O)C(Cc2ccc(OCc3c(Cl)cccc3Cl)cc2)NC(=O)c2ccccn2)CC(C)(C)N1 (stereo not drawn) [Analog M-1350, Pic-OC2Y-Atmp] | – | 36% | – | 6.1 | –
CC1(C)CC(NC(=O)C(Cc2ccc(OCc3c(Cl)cccc3Cl)cc2)NC(=O)C(c2ccccc2)C2CCCCC2)CC(C)(C)N1 (single isomer, unassigned) [M-1124#1, Chpa-OC2Y-Atmp] | 1.7 | 50% | Stim | – | –
O=C(NC(Cc1ccc2ccccc2c1)C(=O)N(Cc1ccccn1)Cc1ccccn1)C(c1ccc(Cl)cc1)c1ccc(Cl)cc1 (stereo not drawn) [Analog M-1214, Bcpa-Nal-Dpic] | 7.3 | 24% | 37% | – | –
CC1(C)CC(NC(=O)C(Cc2ccc(OCc3c(Cl)cccc3Cl)cc2)NC(=O)Cc2c(F)c(F)c(F)c(F)c2F)CC(C)(C)N1 (stereo not drawn) [Analog M-1356, F5pa-OC2Y-Atmp] | – | 0 | – | 4.4 | –
O=C(NC(Cc1ccc2ccccc2c1)C(=O)N1CCN(c2ccccn2)CC1)C(c1ccc(Cl)cc1)c1ccc(Cl)cc1 (stereo not drawn) [Analog M-1242, Bcpa-Nal-Pypz] | > 60 | 19% | 36% | – | –
CC1(C)CC(NC(=O)C(Cc2ccc(OCc3c(Cl)cccc3Cl)cc2)NC(=O)CCCc2ccc(N(CCCl)CCCl)cc2)CC(C)(C)N1 (stereo not drawn) [Analog M-1384, Chl-OC2Y-Atmp] | – | 46% | Stim. | 1.8 | IC50 (NSCLC strain A-549): 1.9 µM
CCCCCCC(O)CC=CCCCCCCCC(=O)NC(Cc1ccc(OCc2c(Cl)cccc2Cl)cc1)C(=O)NC1CC(C)(C)NC(C)(C)C1 (stereo not drawn) [Analog M-1128, Rio-OC2Y-Atmp] | 1.6 | 48% | 44% | – | –
CC1(C)CC(NC(=O)C(Cc2ccc(OCc3c(Cl)cccc3Cl)cc2)NC(=O)C(C)(c2ccccc2)c2ccccc2)CC(C)(C)N1 (stereo not drawn) [Analog M-1126, 22Dp-OC2Y-Atmp] | 4 | 36% | – | – | –
CC1(C)CC(NC(=O)[C@H](Cc2ccc(C#N)cc2)NC(=O)c2ccccn2)CC(C)(C)N1 [Analog M-1352, Pic-PCNF-Atmp] | – | 21% | – | > 60 | –
CC1(C)CC(NC(=O)C(Cc2ccc(OCc3c(Cl)cccc3Cl)cc2)NC(=O)c2cnccn2)CC(C)(C)N1 (stereo not drawn) [Analog M-1368, 2Pyz-OC2Y-Atmp] | – | 47% | Stim. | 3.2 | –
CC1(C)CC(NC(=O)C(Cc2ccc(OCc3c(Cl)cccc3Cl)cc2)NC(=O)C2CCn3c(C(=O)c4ccccc4)ccc32)CC(C)(C)N1 (stereo not drawn) [Analog M-1394, Ktlc-OC2Y-Atmp] | – | 68% | Stim. | 2.9 | IC50 (NSCLC strain A-549): 4.9 µM
COc1ccc2c(c1)c(CC(=O)NC(Cc1ccc(OCc3c(Cl)cccc3Cl)cc1)C(=O)NC1CC(C)(C)NC(C)(C)C1)c(C)n2C(=O)c1ccc(Cl)cc1 (stereo not drawn) [Analog M-1376, Indo-OC2Y-Atmp] | – | 18% | 44% | 1.5 | IC50 (NSCLC strain A-549): 1.8 µM
O=C(NC1CCN(Cc2ccccc2)CC1)C(Cc1c(F)c(F)c(F)c(F)c1F)NC(=O)C(c1ccc(Cl)cc1)c1ccc(Cl)cc1 (stereo not drawn) [Analog M-1188, Bcpa-F5F-Abzp] | 4.5 | 17% | – | – | –
CC(C(=O)NC(Cc1ccc(OCc2c(Cl)cccc2Cl)cc1)C(=O)NC1CC(C)(C)NC(C)(C)C1)c1cccc(C(=O)c2ccccc2)c1 (stereo not drawn) [Analog M-1392, Ktpf-OC2Y-Atmp] | – | 28% | 18% | 2.9 | –
O=C(C=Cc1c(F)c(F)c(F)c(F)c1F)NC(Cc1ccc2ccccc2c1)C(=O)N1CCN(c2ccccn2)CC1 (stereo not drawn) [Analog M-1216, F5c-Nal-Pypz] | > 60 | 32% | 22% | – | –
Pentafluorocinnamoyl-O-(2,6-dichlorobenzyl)tyrosine-4-amino-2,2,6,6-tetramethylpiperidine [Analog M570, reference compound] | – | – | – | – | in vivo anti-cancer activity after oral administration (implanted tumors): active; inhibition of growth of the SCLC line SHP-77 (SHP-77 SCLC cells): 85%; inhibition of PC cell line PC3 tumors (PC3 PC cells; nude mice, 5 mg/kg/every second day or 10 mg/kg/every fourth day): 65%; IC50 [1]: 0.15 µM
CC1(C)CC(NC(=O)C(Cc2ccc(OCc3c(Cl)cccc3Cl)cc2)NC(=O)c2ccc(B(O)O)cc2)CC(C)(C)N1 (stereo not drawn) [Analog M-1372, Bbz-OC2Y-Atmp] | – | 64% | – | > 60 | –
CC1(C)CC(NC(=O)C(Cc2ccc(OCc3c(Cl)cccc3Cl)cc2)NC(=O)C=Cc2cc(F)cc(F)c2F)CC(C)(C)N1 (stereo not drawn) [Analog M-1388, F3c-OC2Y-Atmp] | – | 21% | Stim. | 1.6 | –
O=C(NC(Cc1ccc(-c2ccccc2)cc1)C(=O)N1CC2CC1CN2Cc1ccccc1)C(c1ccc(Cl)cc1)c1ccc(Cl)cc1 (stereo not drawn) [Analog M-1276, Bcpa-Bip-Bdbh] | – | – | 56% | > 60 | IC50 (NSCLC strain A-549): 20 µM
O=C(C=Cc1c(F)c(F)c(F)c(F)c1F)NC(Cc1ccc2ccccc2c1)C(=O)N(Cc1ccccn1)Cc1ccccn1 (stereo not drawn) [Analog M-1200, F5c-Nal-Dpic] | 5 | Stim | – | – | –
CC(=O)Oc1ccccc1C(=O)NC(Cc1ccc(OCc2c(Cl)cccc2Cl)cc1)C(=O)NC1CC(C)(C)NC(C)(C)C1 (stereo not drawn) [Analog M-1378, Aspr-OC2Y-Atmp] | – | 9% | Stim. | 2.9 | IC50 (NSCLC strain A-549): 3.5 µM
COc1ccc(C=CC(=O)NC(Cc2ccc(OCc3c(Cl)cccc3Cl)cc2)C(=O)NC2CC(C)(C)NC(C)(C)C2)cc1OC (stereo not drawn) [Analog M-1362, 3,4Dmc-OC2Y-Atmp] | – | 21% | – | 4 | –
O=C(C=Cc1c(F)c(F)c(F)c(F)c1F)NC(Cc1ccc(-c2ccccc2)cc1)C(=O)N1CC2CC1CN2c1ccc(F)cc1 (stereo not drawn) [Analog M-1272, F5c-Bip-Fpdh] | – | – | 71% | 10 | IC50 (NSCLC strain A-549): 22 µM
CC1(C)CC(NC(=O)C(Cc2ccc(OCc3c(Cl)cccc3Cl)cc2)NC(=O)CCCc2c[nH]c3ccccc23)CC(C)(C)N1 (stereo not drawn) [Analog M-1364, 3Ibu-OC2Y-Atmp] | – | 50% | 9% | 7.2 | –
CC1(C)CC(NC(=O)C(Cc2ccc(OCc3c(Cl)cccc3Cl)cc2)NC(=O)Cc2ccccc2Nc2c(Cl)cccc2Cl)CC(C)(C)N1 (stereo not drawn) [Analog M-1382, Dfc-OC2Y-Atmp] | – | 46% | – | 2.9 | –
CC(C)=CCCC(C)CC(=O)NC(Cc1ccc(OCc2c(Cl)cccc2Cl)cc1)C(=O)NC1CC(C)(C)NC(C)(C)C1 (stereo not drawn) [Analog M-1366, Dmo-OC2Y-Atmp] | – | 14% | – | 3.8 | –
CC1(C)CC(NC(=O)C(Cc2ccc(-c3ccccc3)cc2)NC(=O)C=Cc2c(F)c(F)c(F)c(F)c2F)CC(C)(C)N1 (stereo not drawn) [Analog M-1174, F5c-Bip-Atmp] | 3.7 | 57% | 37% | – | –

Reference: patent US7858349B2, “Anti-cancer compounds” (The Regents of the University of Colorado, priority 1999, dated 2010)
